Experimental data from patent US20100003711A1, “Methods to identify therapeutic agents” (THE SCRIPPS RESEARCH INSTITUTE, priority 2005, published 2010).

Columns and labels:
neuronal cell lines = assay: Cytotoxicity towards neuronal cell lines (similar procedures); type: cell-based
CD36 = assay: Scavenger receptor expression by flow cytometry, CD36; type: cell-based, murine
Experimental: Cell surface CD36 and SR-A were measured by flow cytometry using CD36 (BD Biosciences Pharmingen, San Diego, Calif.) and CD204 (Serotec, Oxford, UK) specific monoclonal antibodies. See Liao et al. (2000) Arterioscler. Thromb. Vasc. Biol. 20: 1968-75; Hu et al. (1996) Blood 87: 2020-28. Murine macrophage J774A.1 cells were serum-starved overnight in media with 0.5% BSA. Cells (1×10^6) treated with cholesterol ozonation products or cholesterol ozonation product complexed with LDL for specified times were then washed twice with PBS. After harvesting the cells by scraping, they were fixed with 6% paraformaldehyde for 20 min; Cells were then resuspended in PBS containing 2% heat-inactivated FCS, 0.05% NaN3 and appropriate primary antibody, antibody conjugate or isotype control (1:100 dilution) and incubated on ice for 30 min. Expression of either CD36 or SR-A was determined with CD36 (BD Biosciences Pharmingen, San Diego, Calif.) and CD204 (Serotec, Oxford, U.K.) specific monoclonal antibodies, respectively. After washing off the primary antibody, secondary antibodies were added, cells were washed again, then analyzed on a FACS calibur 2 (Becton Dickinson, Sparks, Md.) flow cytometer and analyzed by CellQuant software. Results were expressed as mean fluorescence intensity±standard error of the mean (SEM) of at least duplicate determinations. Significance was determined using a student two-tail t test, with (*) indicating p<0.05, and (**) indicating p<0.01 versus the control.

E-selectin (CD62E) = assay: Endothelial adhesion molecule expression by ELISA, E-selectin; type: cell-based, human
Experimental: (§1) Endothelial cell surface adhesion molecule expression was measured by ELISA, using anti-human CD54 (ICAM-1), CD106 (VCAM-1) and CD62E (E-Selectin) antibodies (Leinco Technologies, Inc., St. Louis, Mo.). The ELISA method was modified from previously described procedures.
(§2) Cells were then incubated with antibodies to VCAM-1, E-selectin, or ICAM-1 diluted 1:400 in PBS containing 5% FCS at 37° C. for 30 min. Wells were washed two times with PBS, then incubated with horseradish peroxidase (HRP)-conjugated goat anti-mouse IgG (Southern Biotechnology Associates, Birmingham, Ala., USA) in PBS/5% FCS at 37° C. for 30 min. The wells were washed four times with PBS, then incubated with H2O2/3,3′,5,5′-tetramethyl-benzidine peroxidase substrate (Pierce Chemical, Rockford, Ill., USA) for 30 min in the dark. The reaction was stopped by adding 25 μl of 8 N H2SO4, and the plates read on a microplate reader, blanking on wells stained with only secondary antibody. Each assay was performed in triplicate and the data are reported as the mean±SEM as a percentage of the expression level of the vehicle. To study the effect of cholesterol ozonation product 5a concentration (5-50 μM) on E-selectin expression, the assay was performed in an identical fashion as described above, with each point being the mean±SEM of at least duplicate measurements.

VCAM-1 (CD106) = assay: Endothelial adhesion molecule expression by ELISA, VCAM-1; type: cell-based, human
Experimental: as §1, §2

U-937 monocytes cells = assay: Monocyte adhesion to endothelial cell monolayers by fluorescence spectroscopy; type: cell-based; details: alone or in complex with LDL
[1] = Aldolization of ketoaldehyde 4a with amino acids (1H NMR); type: physicochemical; details: DMSO-d6 (800 μl) and D2O (80 μl) without amino acid
Experimental: Aldolization of ketoaldehyde 4a with amino acids. […] To this solution was added 1 equivalent of either: a) L-proline, b) glycine, c) L-lysine hydrochloride or d) L-lysine ethyl ester dihydrochloride. At time points the samples were analyzed by ^1H NMR.

LDL / apoB-100 = LDL / apoB-100 (Homo sapiens, UniProt P04114); assay: Circular dichroism of LDL secondary structure; details: LDL 100 μg/ml with 10 μM compound, PBS pH 7.4, 37° C., up to 48 h; normal LDL ~40±2%
Sequence of LDL / apoB-100 (P04114 28-4563): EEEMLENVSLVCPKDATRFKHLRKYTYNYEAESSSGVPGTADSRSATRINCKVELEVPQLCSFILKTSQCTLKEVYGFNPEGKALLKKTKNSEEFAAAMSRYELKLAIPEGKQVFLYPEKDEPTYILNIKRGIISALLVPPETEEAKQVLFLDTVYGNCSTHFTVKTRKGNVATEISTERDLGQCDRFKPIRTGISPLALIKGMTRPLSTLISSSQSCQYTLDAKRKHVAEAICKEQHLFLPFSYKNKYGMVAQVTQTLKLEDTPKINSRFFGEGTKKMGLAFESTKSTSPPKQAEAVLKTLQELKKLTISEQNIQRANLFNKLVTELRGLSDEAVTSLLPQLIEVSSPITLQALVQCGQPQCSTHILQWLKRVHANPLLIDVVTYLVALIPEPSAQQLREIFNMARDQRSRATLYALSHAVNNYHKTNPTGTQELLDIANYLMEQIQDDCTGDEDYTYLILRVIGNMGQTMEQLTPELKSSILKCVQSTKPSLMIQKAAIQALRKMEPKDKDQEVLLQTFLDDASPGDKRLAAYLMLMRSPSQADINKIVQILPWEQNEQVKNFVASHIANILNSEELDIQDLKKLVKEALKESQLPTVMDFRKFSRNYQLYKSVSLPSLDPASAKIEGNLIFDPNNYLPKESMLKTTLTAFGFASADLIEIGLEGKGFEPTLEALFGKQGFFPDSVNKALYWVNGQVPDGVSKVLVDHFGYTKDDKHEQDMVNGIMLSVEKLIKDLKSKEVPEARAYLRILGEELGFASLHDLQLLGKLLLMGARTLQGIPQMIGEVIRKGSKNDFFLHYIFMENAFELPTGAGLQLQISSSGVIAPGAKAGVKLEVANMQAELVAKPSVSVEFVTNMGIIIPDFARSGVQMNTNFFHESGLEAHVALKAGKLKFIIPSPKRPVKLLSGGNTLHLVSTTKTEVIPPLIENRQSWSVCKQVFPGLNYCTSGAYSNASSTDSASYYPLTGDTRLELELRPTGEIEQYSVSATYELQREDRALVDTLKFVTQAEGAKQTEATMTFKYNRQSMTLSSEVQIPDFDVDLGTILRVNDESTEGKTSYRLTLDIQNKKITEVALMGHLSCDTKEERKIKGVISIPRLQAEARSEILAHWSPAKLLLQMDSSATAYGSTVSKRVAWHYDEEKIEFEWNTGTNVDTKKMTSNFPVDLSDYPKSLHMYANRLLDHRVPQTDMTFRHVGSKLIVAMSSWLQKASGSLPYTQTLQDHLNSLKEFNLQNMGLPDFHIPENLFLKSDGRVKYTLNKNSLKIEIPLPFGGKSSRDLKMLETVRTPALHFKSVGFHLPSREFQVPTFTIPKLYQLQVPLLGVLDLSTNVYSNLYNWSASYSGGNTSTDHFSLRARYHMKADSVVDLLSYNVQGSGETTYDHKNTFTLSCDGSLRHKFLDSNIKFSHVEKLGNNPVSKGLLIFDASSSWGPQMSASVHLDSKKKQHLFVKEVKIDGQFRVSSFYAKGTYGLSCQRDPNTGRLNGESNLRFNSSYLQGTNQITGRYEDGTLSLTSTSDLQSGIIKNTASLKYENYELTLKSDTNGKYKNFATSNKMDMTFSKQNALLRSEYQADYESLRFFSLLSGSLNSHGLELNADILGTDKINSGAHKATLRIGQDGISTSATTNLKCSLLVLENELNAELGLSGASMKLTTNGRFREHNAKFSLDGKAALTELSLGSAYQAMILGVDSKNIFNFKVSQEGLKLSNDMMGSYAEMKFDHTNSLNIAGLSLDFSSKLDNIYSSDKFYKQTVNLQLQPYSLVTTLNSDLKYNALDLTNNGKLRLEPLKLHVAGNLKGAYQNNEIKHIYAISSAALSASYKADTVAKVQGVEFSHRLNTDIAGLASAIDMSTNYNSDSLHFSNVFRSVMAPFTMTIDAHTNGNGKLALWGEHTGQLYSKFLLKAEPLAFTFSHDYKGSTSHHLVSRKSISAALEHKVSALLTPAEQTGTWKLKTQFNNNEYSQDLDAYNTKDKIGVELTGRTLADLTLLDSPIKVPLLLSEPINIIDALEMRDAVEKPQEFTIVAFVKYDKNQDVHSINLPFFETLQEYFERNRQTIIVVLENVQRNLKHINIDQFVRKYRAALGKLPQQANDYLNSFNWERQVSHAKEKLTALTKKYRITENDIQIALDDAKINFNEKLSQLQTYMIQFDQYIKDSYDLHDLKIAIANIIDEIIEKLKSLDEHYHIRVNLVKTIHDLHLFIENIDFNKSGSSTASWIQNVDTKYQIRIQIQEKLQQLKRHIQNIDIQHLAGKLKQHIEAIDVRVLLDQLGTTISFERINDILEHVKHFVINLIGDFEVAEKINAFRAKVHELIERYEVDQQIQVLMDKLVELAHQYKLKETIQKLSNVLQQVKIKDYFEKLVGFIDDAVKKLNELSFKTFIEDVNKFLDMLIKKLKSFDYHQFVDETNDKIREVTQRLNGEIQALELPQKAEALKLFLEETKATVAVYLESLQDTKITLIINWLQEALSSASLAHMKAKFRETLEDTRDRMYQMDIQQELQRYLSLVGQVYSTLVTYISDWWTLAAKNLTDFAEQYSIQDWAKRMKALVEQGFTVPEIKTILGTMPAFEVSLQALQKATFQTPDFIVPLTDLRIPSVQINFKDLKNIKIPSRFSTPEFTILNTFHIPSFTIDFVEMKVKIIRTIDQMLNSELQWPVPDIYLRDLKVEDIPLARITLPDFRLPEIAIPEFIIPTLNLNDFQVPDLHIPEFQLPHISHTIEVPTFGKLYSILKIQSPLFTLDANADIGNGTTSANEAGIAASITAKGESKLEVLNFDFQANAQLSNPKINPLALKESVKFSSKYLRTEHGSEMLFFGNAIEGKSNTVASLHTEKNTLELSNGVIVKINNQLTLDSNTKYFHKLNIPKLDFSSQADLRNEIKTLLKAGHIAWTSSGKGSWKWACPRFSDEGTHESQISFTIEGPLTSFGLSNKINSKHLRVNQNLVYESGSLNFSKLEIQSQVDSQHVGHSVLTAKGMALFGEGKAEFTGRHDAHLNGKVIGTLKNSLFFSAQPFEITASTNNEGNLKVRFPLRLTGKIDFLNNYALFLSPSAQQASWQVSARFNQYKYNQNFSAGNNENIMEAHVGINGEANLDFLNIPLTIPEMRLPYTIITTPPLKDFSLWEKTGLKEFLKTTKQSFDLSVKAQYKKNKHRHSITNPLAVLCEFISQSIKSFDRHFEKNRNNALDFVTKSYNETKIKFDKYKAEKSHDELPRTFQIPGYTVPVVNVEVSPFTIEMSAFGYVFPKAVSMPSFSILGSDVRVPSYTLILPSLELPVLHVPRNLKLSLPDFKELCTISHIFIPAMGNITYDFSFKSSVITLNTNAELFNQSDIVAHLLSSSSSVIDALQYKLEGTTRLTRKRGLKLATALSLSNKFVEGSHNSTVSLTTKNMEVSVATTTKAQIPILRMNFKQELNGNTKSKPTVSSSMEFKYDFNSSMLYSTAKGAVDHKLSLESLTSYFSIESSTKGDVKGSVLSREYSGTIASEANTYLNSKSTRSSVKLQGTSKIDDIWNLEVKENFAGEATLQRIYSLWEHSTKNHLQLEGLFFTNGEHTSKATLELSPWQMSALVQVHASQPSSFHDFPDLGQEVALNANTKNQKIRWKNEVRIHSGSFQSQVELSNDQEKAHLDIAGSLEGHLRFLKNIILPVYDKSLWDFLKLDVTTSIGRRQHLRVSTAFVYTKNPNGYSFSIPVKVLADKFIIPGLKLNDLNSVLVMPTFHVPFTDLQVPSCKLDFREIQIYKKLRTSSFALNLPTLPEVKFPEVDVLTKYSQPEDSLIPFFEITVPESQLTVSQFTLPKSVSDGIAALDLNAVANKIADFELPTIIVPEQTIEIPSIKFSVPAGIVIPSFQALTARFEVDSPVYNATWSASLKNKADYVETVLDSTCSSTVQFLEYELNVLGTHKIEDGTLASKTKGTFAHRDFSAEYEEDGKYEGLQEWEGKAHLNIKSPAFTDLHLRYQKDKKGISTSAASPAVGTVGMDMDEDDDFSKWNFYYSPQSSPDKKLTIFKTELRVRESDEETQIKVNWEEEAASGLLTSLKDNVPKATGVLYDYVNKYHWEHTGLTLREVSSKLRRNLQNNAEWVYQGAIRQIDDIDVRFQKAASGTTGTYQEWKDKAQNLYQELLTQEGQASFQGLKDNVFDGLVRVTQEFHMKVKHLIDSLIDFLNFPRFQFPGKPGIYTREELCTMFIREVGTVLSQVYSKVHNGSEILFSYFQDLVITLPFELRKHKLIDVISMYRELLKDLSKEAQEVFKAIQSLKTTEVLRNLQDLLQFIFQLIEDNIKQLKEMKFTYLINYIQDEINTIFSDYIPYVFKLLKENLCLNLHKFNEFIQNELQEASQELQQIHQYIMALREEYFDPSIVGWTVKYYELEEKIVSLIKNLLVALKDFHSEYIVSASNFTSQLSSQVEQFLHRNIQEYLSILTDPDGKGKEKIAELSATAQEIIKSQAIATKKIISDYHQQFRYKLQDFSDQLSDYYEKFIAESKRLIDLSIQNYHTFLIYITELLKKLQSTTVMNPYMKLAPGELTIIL
Experimental: Spectra were recorded in the peptidic range (200-260 nm). To increase the signal-to-noise ratio, multiple spectra (three) were averaged for each measurement. The deconvolution of the molar elipticity spectra for each measurement was performed using the CDPro suite of software (by Narasimha Sreerama from Colorado State University) on a Dell PC.

CC(C)CCC[C@@H](C)[C@H]1CCC2C(CC=O)C([C@@]3(C)CC[C@H](O)CC3=O)CC[C@@]21C (some centres unmarked) [4a, 3βHydroxy-5-oxo-5,6-secocholestan-6-al]
cytotoxicity towards neuronal cell lines (neuronal cell lines): cytotoxic
CD36 expression (CD36; J774A.1, 25 μM compound complexed with LDL (100 μg/ml protein), 6 h): little or no effect
CD36 expression (CD36; cultured macrophages, compound in the absence of LDL): did not increase expression of either receptor
induction of E-selectin levels (E-selectin (CD62E); HAAE-1, 1.25 μM complexed with LDL (100 μg/mL protein)): 2 fold
induction of E-selectin levels (E-selectin (CD62E); HAAE-1, 50 μM complexed with LDL (100 μg/mL protein)): about 8 fold
selectin (E-selectin) expression (E-selectin (CD62E); HAAE-1, not complexed with LDL): no effects
VCAM-1 levels (VCAM-1 (CD106); HAAE-1, 25 μM compound in the presence of LDL, 4 h): remain unchanged
integrin expression (VCAM-1) (VCAM-1 (CD106); HAAE-1, not complexed with LDL): no effects
adhesion of U-937 monocytes to endothelial cell monolayers, above that of LDL alone (U-937 monocytes cells): neither ozonolysis product 4a nor 5a, alone or in complex with LDL, nor CuOx-LDL significantly increased adhesion
aldolization of 4a [1]: no aldolization
a helical structure of LDL (LDL / apoB-100): ~23±5%
